Patent EP4043466B1, “PRC2 INHIBITORS” (Mirati Therapeutics, Inc., priority 2018, dated 2019)

Legend:
[1] = target: purified human, His-tagged PRC2 complex (Homo sapiens, UniProt O75530+Q15910); assay: Hot Spot HMT assay: inhibition of PRC2 enzymatic activity (transfer of tritiated methyl from SAM to core histone, filter binding); format: biochemical; details: Inhibition of PRC2-mediated enzymatic activity; 10 nM PRC2 complex, 0.05 mg/ml core histone H3, 1 uM 3H-SAM, 1 hr at 30°C
How it was run: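 Five-subunit complex (His-EZH2, Flag-EED, His-SUZ12, His-AEBP2, His-RbAp48) at 10 nM with 0.05 mg/ml core histone H3, pH 8 Tris buffer, 1% DMSO; 20 min compound pre-incubation at 30°C. Started with 1 uM [3H]-SAM, 1 hr at 30°C; tritiated H3 counted by scintillation. Compounds diluted from 1.0 µM top concentration.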

[2] = tested on: PRC2-mediated histone H3 methylation; assay: Tri-Methyl Histone H3 (Lys 27) Sandwich ELISA in Pfeiffer cells: inhibition of PRC2-mediated histone H3 methylation; format: cell-based, human; details: Inhibition of EZH2-mediated histone H3 trimethylation, Pfeiffer cells (EZH2 A677G), 96 hours incubation
How it was run: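 Pfeiffer DLBCL cells (EZH2 A677G mutant) treated with 3-fold serial dilutions, 1µM to 0.15 nM final, for 96 hours at 37°C. Acid (0.4M HCl) histone extracts, neutralized, assayed by H3K27me3 sandwich ELISA with HRP/TMB read at 450 nm.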

Karpas 422 cells = assay: Karpas 422 cell viability, CTG (Cell Titre Glo) assay; format: cell-based, human; details: Inhibition of proliferation of Karpas 422 cells (EZH2 Y641N), viability measured Day 4, Day 7 or Day 11, time point of the tabulated values not stated
How it was run: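 Karpas 422 cells (EZH2 Y641N, DLBCL) plated at 1000 cells/well in RPMI with 20% FBS, exposed to compound 10µM down to 1.5nM in 3-fold steps at 37 °C. Viability by CellTiter-Glo on Days 4, 7 and 11; Day 11 plates re-fed with fresh medium and compound on Day 7. IC50 per time point.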

Chain of purified human, His-tagged PRC2 complex (Q15910 whole entry): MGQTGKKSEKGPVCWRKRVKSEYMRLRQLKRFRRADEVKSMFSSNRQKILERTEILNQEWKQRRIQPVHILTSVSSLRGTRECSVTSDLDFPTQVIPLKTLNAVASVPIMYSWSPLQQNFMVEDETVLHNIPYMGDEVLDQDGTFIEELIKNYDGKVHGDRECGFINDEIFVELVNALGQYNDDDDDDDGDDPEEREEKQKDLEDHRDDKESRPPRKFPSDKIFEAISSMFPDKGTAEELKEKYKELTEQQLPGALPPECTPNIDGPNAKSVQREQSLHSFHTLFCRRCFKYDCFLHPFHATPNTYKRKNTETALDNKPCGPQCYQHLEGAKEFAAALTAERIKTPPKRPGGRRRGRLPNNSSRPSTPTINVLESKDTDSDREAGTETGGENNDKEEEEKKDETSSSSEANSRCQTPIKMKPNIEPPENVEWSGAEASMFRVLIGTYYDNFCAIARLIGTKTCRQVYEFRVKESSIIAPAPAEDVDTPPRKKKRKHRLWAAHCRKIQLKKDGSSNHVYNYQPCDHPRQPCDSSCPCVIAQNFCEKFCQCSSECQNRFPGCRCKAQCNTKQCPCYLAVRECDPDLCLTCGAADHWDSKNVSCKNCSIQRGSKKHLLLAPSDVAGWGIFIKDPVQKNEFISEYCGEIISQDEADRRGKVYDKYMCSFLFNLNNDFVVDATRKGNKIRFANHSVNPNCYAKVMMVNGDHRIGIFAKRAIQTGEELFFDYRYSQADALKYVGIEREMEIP
Chain of purified human, His-tagged PRC2 complex (O75530 whole entry): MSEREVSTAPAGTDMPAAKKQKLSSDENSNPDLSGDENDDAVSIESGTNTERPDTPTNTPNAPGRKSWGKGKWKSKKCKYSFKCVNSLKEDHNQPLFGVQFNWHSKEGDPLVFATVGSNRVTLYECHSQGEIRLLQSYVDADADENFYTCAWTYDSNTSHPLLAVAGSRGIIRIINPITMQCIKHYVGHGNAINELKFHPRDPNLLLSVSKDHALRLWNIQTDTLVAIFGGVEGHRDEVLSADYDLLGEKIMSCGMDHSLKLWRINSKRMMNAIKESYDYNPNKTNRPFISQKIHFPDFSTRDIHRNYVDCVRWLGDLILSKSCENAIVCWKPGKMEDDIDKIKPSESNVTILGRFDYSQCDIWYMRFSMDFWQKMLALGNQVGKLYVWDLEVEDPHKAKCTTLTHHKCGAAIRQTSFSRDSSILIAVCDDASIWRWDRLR
Chain of purified human, His-tagged PRC2 complex (Q15022 whole entry partner): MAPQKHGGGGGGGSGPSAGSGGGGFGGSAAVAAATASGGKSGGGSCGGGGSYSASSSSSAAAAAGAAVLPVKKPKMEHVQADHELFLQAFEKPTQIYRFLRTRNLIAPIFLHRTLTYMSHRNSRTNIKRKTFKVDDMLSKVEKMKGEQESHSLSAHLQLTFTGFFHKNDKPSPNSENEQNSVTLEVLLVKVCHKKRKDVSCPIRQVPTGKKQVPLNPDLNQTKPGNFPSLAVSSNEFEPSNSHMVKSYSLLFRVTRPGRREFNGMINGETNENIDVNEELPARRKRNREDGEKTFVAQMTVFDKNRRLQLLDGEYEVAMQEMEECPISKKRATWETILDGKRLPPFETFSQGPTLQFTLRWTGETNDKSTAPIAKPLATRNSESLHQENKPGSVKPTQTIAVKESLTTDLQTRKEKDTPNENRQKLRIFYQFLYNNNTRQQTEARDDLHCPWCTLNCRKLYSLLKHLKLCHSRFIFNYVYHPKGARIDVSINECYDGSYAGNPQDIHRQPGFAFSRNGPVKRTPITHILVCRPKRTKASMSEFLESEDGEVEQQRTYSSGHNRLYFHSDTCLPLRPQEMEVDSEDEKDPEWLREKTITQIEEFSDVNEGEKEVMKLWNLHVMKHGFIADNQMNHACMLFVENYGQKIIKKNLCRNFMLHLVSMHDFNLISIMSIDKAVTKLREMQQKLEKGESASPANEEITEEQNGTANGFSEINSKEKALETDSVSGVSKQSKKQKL
Chain of purified human, His-tagged PRC2 complex (Q6ZN18 whole entry partner): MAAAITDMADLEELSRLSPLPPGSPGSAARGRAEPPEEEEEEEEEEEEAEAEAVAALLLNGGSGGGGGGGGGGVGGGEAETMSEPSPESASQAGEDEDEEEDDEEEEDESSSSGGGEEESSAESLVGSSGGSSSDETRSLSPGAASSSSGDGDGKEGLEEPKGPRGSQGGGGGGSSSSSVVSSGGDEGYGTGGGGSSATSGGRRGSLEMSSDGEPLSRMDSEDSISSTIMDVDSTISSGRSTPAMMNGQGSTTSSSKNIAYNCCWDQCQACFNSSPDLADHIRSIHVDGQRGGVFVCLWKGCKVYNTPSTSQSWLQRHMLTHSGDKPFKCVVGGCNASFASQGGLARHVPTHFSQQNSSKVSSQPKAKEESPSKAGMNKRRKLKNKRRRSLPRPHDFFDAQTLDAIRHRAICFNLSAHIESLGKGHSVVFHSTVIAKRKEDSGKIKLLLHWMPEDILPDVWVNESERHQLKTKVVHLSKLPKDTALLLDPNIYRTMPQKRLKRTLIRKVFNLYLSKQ
Chain of purified human, His-tagged PRC2 complex (Q09028 whole entry partner): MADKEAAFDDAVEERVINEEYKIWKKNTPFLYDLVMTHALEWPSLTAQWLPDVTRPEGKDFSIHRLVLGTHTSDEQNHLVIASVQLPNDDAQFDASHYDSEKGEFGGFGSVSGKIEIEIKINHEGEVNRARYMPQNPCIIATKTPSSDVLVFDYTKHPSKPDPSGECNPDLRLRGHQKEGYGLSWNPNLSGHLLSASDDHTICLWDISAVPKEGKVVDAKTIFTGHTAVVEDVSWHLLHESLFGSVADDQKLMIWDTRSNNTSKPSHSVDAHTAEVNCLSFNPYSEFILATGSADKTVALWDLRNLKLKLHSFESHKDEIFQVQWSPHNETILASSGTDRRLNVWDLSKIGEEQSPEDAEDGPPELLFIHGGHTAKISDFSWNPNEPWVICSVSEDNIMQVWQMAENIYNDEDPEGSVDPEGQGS

Compound | IC50 [1] | IC50 ([2]; Homo sapiens) | IC50 (Karpas 422 cells; Homo sapiens) | IC50 [2] | IC50 (Karpas 422 cells)
CN(C)CCc1cccc(-c2cnc(NCc3c(F)ccc4c3CCO4)n3cc(C#N)nc23)c1 [Example 217, 8-(3-(2-(dimethylamino)ethyl)phenyl)-5-(((5-fluoro-2,3-dihydrobenzofuran-4-yl)methyl)amino)imidazo[1,2-c]pyrimidine-2-carbonitrile] | < 100 nM | 100 to 500 nM | ≤ 250 nM | – | –
COCCOc1ncc(-c2cnc(NCc3c(F)ccc4c3CCO4)n3cc(C#N)nc23)cn1 [Example 191, 5-(((5-fluoro-2,3-dihydrobenzofuran-4-yl)methyl)amino)-8-(2-(2-methoxyethoxy)pyrimidin-5-yl)imidazo[1,2-c]pyrimidine-2-carbonitrile] | 100 to 500 nM | 100 to 500 nM | 250 to 500 nM | – | –
CC(O)Cn1cc(-c2cnc(NCc3c(F)ccc4c3CCO4)n3cc(C#N)nc23)cn1 (stereo not drawn) [Example 179, 5-(((5-fluoro-2,3-dihydrobenzofuran-4-yl)methyl)amino)-8-(1-(2-hydroxypropyl)-1H-pyrazol-4-yl)imidazo[1,2-c]pyrimidine-2-carbonitrile] | < 100 nM | 100 to 500 nM | > 500 nM | – | –
N#Cc1cn2c(NCc3c(F)ccc4c3CCO4)ncc(-c3ccnn3C3CC3)c2n1 [Example 193, 8-(1-cyclopropyl-1H-pyrazol-5-yl)-5-(((5-fluoro-2,3-dihydrobenzofuran-4-yl)methyl)amino)imidazo[1,2-c]pyrimidine-2-carbonitrile] | < 100 nM | 100 to 500 nM | ≤ 250 nM | – | –
Cc1c(C#N)cccc1-c1cnc(NCc2c(F)ccc3c2CCO3)n2cc(C#N)nc12 [Example 176, 8-(3-cyano-2-methylphenyl)-5-(((5-fluoro-2,3-dihydrobenzofuran-4-yl)methyl)amino)imidazo[1,2-c]pyrimidine-2-carbonitrile] | < 100 nM | 100 to 500 nM | 250 to 500 nM | – | –
N#Cc1cn2c(NCc3c(F)ccc4c3CCO4)ncc(-c3cnn(CC4CCOC4)c3)c2n1 (stereo not drawn) [compound 154] | 100 to 500 nM | 100 to 500 nM | 250 to 500 nM | – | –
N#Cc1cn2c(NCc3c(F)ccc4c3CCO4)ncc(-c3ccccn3)c2n1 [Example 146, 5-(((5-fluoro-2,3-dihydrobenzofuran-4-yl)methyl)amino)-8-(pyridin-2-yl)imidazo[1,2-c]pyrlmldlne-2-carbonltrlle] | 100 to 500 nM | 100 to 500 nM | ≤ 250 nM | – | –
CN(C)C(=O)c1cc(-c2cnc(NCc3c(F)ccc4c3CCO4)n3cc(C#N)nc23)n(C)n1 [Example 170, 5-(2-cyano-5-(((5-fluoro-2,3-dihydrobenzofuran-4-yl)methyl)amino)imidazo[1,2-c]pyrimidin-8-yl)-N,N,1-trimethyl-1H-pyrazole-3-carboxamide] | < 100 nM | ≤ 100 nM | ≤ 250 nM | – | –
CN(C)C(=O)c1ccc(-c2cnc(NCc3c(F)ccc4c3CCO4)n3cc(C#N)nc23)cc1 [Example 180, 4-(2-cyano-5-(((5-fluoro-2,3-dihydrobenzofuran-4-yl)methyl)amino)imidazo[1,2-c]pyrimidin-8-yl)-N,N-dimethylbenzamide] | < 100 nM | ≤ 100 nM | ≤ 250 nM | – | –
Cc1cc(S(=O)(=O)N(C)C)ccc1-c1cnc(NCc2c(F)ccc3c2CCO3)n2cc(C#N)nc12 [Example 48, 4-(2-cyano-5-(((5-fluoro-2,3-dihydrobenzofuran-4-yl)methyl)amino)imidazo[1,2-c]pyrimidin-8-yl)-N,N,3-trimethylbenzenesulfonamide] | < 100 nM | 100 to 500 nM | ≤ 250 nM | – | –
CN1CCc2cc(-c3cnc(NCc4c(F)ccc5c4CCO5)n4cc(C#N)nc34)ccc2C1=O [Example 168, 5-(((5-fluoro-2,3-dihydrobenzofuran-4-yl)methyl)amino)-8-(2-methyl-1-oxo-1,2,3,4-tetrahydroisoquinolin-6-yl)imidazo[1,2-c]pyrimidine-2-carbonitrile] | < 100 nM | 100 to 500 nM | ≤ 250 nM | – | –
COCCOc1ccc(-c2cnc(NCc3c(F)ccc4c3CCO4)n3cc(C#N)nc23)c(C)c1 [Example 206, 5-(((5-fluoro-2,3-dihydrobenzofuran-4-yl)methyl)amino)-8-(4-(2-methoxyethoxy)-2-methylphenyl)imidazo[1,2-c]pyrimidine-2-carbonitrile] | 100 to 500 nM | 100 to 500 nM | 250 to 500 nM | – | –
N#Cc1cn2c(NCc3c(F)ccc4c3CCO4)ncc(-c3ccc(C4CCCO4)cc3)c2n1 (stereo not drawn) [Example 162, 5-(((5-fluoro-2,3-dihydrobenzofuran-4-yl)methyl)amino)-8-(4-(tetrahydrofuran-2-yl)phenyl)imidazo[1,2-c]pyrimidine-2-carbonitrile] | < 100 nM | 100 to 500 nM | 250 to 500 nM | – | –
N#Cc1cn2c(NCc3c(F)ccc4c3CCO4)ncc(-c3ccc(-c4nnn[nH]4)cc3)c2n1 [Example 190, 8-(4-(1H-tetrazol-5-yl)phenyl)-5-(((5-fluoro-2,3-dihydrobenzofuran-4-yl)methyl)amino)imidazo[1,2-c]pyrimidine-2-carbonitrile] | < 100 nM | > 500 nM | > 500 nM | – | –

Other lines, results leading:

IC50 [1] | IC50 ([2]; Homo sapiens) | IC50 (Karpas 422 cells; Homo sapiens) | IC50 [2] | IC50 (Karpas 422 cells) | Compound
< 100 nM | 100 to 500 nM | ≤ 250 nM | – | – | CN(C)S(=O)(=O)c1ccc(-c2cnc(NCc3c(F)ccc4c3CCO4)n3cc(C#N)nc23)cc1 [Example 58, 4-(2-cyano-5-(((5-fluoro-2,3-dihydrobenzofuran-4-yl)methyl)amino)imidazo[1,2-c]pyrimidin-8-yl)-N,N-dimethylbenzenesulfonamide]
< 100 nM | ≤ 100 nM | ≤ 250 nM | – | – | N#Cc1cn2c(NCc3c(F)ccc4c3CCO4)ncc(-c3ccc(S(N)(=O)=O)cc3)c2n1 [Example 47, 4-(2-cyano-5-(((5-fluoro-2,3-dihydrobenzofuran-4-yl)methyl)amino)imidazo[1,2-c]pyrimidin-8-yl)benzenesulfonamide]
< 100 nM | 100 to 500 nM | ≤ 250 nM | – | – | COCCOc1ccc(-c2cnc(NCc3c(F)ccc4c3CCO4)n3cc(C#N)nc23)cc1 [Example 161, 5-(((5-fluoro-2,3-dihydrobenzofuran-4-yl)methyl)amino)-8-(4-(2-methoxyethoxy)phenyl)imidazo[1,2-c]pyrimidine-2-carbonitrile]
< 100 nM | ≤ 100 nM | ≤ 250 nM | – | – | Cc1ncccc1-c1cnc(NCc2c(F)ccc3c2CCO3)n2cc(C#N)nc12 [Example 105, 5-(((5-fluoro-2,3-dihydrobenzofuran-4-yl)methyl)amino)-8-(2-methylpyridin-3-yl)imidazo[1,2-c]pyrimidine-2-carbonitrile]
< 100 nM | ≤ 100 nM | ≤ 250 nM | – | – | Cc1c(-c2cnc(NCc3c(F)ccc4c3CCO4)n3cc(C#N)nc23)ccc(CN(C)C)c1F [Example 85, 8-(4-((dimethylamino)methyl)-3-fluoro-2-methylphenyl)-5-(((5-fluoro-2,3-dihydrobenzofuran-4-yl)methyl)amino)imidazo[1,2-c]pyrimidine-2-carbonitrile]
< 100 nM | – | – | ≤ 100 nM | ≤ 250 nM | 5-(2-cyano-5-(((5-fluoro-2,3-dihydrobenzofuran-4-yl)methyl)amino)imidazo[1,2-c]pyrimidin-8-yl)-1-methyl-1H-pyrazole-3-carboxylic acid [Example 157]
100 to 500 nM | 100 to 500 nM | 250 to 500 nM | – | – | COCCOc1ccc(-c2cnc(NCc3c(F)ccc4c3CCO4)n3cc(C#N)nc23)cn1 [Example 158, 5-(((5-fluoro-2,3-dihydrobenzofuran-4-yl)methyl)amino)-8-(6-(2-methoxyethoxy)pyridin-3-yl)imidazo[1,2-c]pyrimidine-2-carbonitrile]
100 to 500 nM | 100 to 500 nM | ≤ 250 nM | – | – | Cc1nc(CN(C)C)ccc1-c1cnc(NCc2c(F)ccc3c2CCO3)n2cc(C#N)nc12 [Example 152, 8-(6-((dimethylamino)methyl)-2-methylpyridin-3-yl)-5-(((5-fluoro-2,3-dihydrobenzofuran-4-yl)methyl)amino)imidazo[1,2-c]pyrimidine-2-carbonitrile]
< 100 nM | 100 to 500 nM | ≤ 250 nM | – | – | CN(C)Cc1ccc(-c2cnc(NCc3c(F)ccc4c3CCO4)n3cc(C#N)nc23)c(C#N)c1 [Example 198, 8-(2-cyano-4-((dimethylamino)methyl)phenyl)-5-(((5-fluoro-2,3-dihydrobenzofuran-4-yl)methyl)amino)imidazo[1,2-c]pyrimidine-2-carbonitrile]
100 to 500 nM | > 500 nM | > 500 nM | – | – | Cn1cccc(-c2cnc(NCc3c(F)ccc4c3CCO4)n3cc(C#N)nc23)c1=O [Example 156, 5-(((5-fluoro-2,3-dihydrobenzofuran-4-yl)methyl)amino)-8-(1-methyl-2-oxo-1,2-dihydropyridin-3-yl)imidazo[1,2-c]pyrimidine-2-carbonitrile]
